Experimental findings from US12516041B2, “Crystal forms of GLP-1R agonists and uses thereof” (QILU REGOR THERAPEUTICS INC., priority 2020, dated 2026) are described below.

Common to all, as to type: physicochemical
Data set [1] can be described thus: Solubility test in bio-relevant media (SGF, FeSSIF, FaSSIF), HPLC of filtrate, XRPD of filter cake. The conditions noted are these: for solubility at 24 h / solubility at 0.5 h / solubility at 2 h: 37 °C, thermodynamic from solid; for solubility at 24 h: read-out: Solubility (μg/mL) 24 h; for solubility at 0.5 h: read-out: Solubility (μg/mL) 0.5 h; for solubility at 2 h: read-out: Solubility (μg/mL) 2 h. The method, then: (§1) HPLC analysis was performed with an Agilent HPLC 1260 series instrument.
(§2) HPLC Method for Stability and Solubility Testing
The solubility of free acid Form I was tested in bio-relevant media (Simulated Gastric Fluid (SGF), Fasted-State Simulated Intestinal Fluid (FaSSIF) and Fed-State Simulated Intestinal Fluid (FeSSIF)) at 37° C. for up to 24 hours. About 15 mg of the sample was weighed into sample vial, and then 5.0 mL of bio-relevant media was added to make suspension. All suspensions prepared were shaken @ 600 rpm with a QQMSC-100 shaker at 37° C. At 0.5, 2 and 24 hours, about 1000 μL of each suspension was filtered and diluted, and then the filtrate was analyzed by HPLC to test the solubility. The pH of the filtrate was measured, and the filter cake was analyzed by XRPD.

A short description of data set [2]: Solid-state stability study (HPLC purity, XRPD). The method, then: XRPD patterns were identified with an X-ray diffractometer (PANalytical Empyrean). The system was equipped with PIXcel^1D detector. Samples were scanned from 3 to 40° 2θ, at a step size of 0.013° 2θ. The tube voltage and current were 45 KV and 40 mA, respectively.
as §1, §2
About 25 mg of free acid Form I was placed at 60° C./capped and 40° C./75% RH (open) conditions for up to 12 days. At day 0 and 7, the sample was dissolved in diluent to prepare 0.5 mg/mL solution for HPLC purity analysis. Solid samples were analyzed by XRPD to check the crystal form at day 12.

Data set [3] is described as follows: Dynamic Vapor Sorption (DVS). The source says: Moisture sorption/desorption data was collected on a Vsorp Dynamic Moisture Sorption Analyzer (ProUmid GmbH & Co. KG, Germany). The sample was placed into a tared sample chamber and automatically weighed.
The product obtained from preparation method 1 was characterized by XRPD (FIG. 1), TGA, DSC (FIG. 2), DVS (FIG. 3), and ^1H-NMR.

Molecules are shown by their SMILES. Values after ≈ are worked out from the molar mass of the structure shown. Where two headings read alike, the source gives them in different places.

Regarding `O=C(O)c1ccc2nc(Cc3ccc(-c4cccc(OCc5ccc(Cl)cc5F)n4)cc3F)n(C[C@@H]3CCO3)c2c1` [Free Acid Form I, (S)-2-(4-(6-((4-chloro-2-fluorobenzyl)oxy)pyridin-2-yl)-2-fluorobenzyl)-1-(oxetan-2-ylmethyl)-1H-benzo[d]imidazole-6-carboxylic acid], the solubility at 24 h is 15 µg/mL (≈ 26 µM) in data set [1] (FaSSIF, pH 6.45, fassif, FaSSIF, pH 6.45 (24 h)) and 11 µg/mL (≈ 19.1 µM) in data set [1] (FeSSIF, pH 4.95, fessif, FeSSIF, pH 4.95 (24 h)). The solubility at 0.5 h in data set [1] (FaSSIF, pH 6.5, fassif, FaSSIF, pH 6.50 (0 h)) was ~5 µg/mL (≈ 8.68 µM); in data set [1] (FeSSIF, pH 4.99, fessif, FeSSIF, pH 4.99 (0 h)), ~10 µg/mL (≈ 17.4 µM). For the same molecule, the solubility at 2 h in data set [1] (FaSSIF, pH 6.5, fassif, FaSSIF) was found to be 6 µg/mL (≈ 10.4 µM); in data set [1] (FeSSIF, pH 4.99, fessif, FeSSIF) it was 17 µg/mL (≈ 29.5 µM). Besides, in data set [1] (SGF, 37° C.), the “Solubility in SGF (in words)” value is recorded as “insoluble”. Further, the “XRPD pattern after solubility study” value in data set [1] (bio-relevant media, 37° C., up to 24 hours) was “not changed”. For the same molecule, the “XRPD (24 h)” value was “Unchanged” in data set [1] (filter cake after 24 h in FaSSIF, 37° C.); “Unchanged” in data set [1] (filter cake after 24 h in FeSSIF, 37° C.); “Unchanged” in data set [1] (filter cake after 24 h in SGF, 37° C.). Further, in data set [2] (40° C./75% RH (open), 1 week, HPLC), the “Purity-1 week (Area %) 40° C./75% RH, 1 week” value was found to be 99.56 Area %. For the same molecule, the “XRPD-12 days 40° C./75% RH” value in data set [2] (40° C./75% RH (open), 12 days) is “Unchanged”. Also, the “Physical and chemical stability (in words)” value in data set [2] (60° C./capped and 40° C./75% RH (open), 12 days) is “physically and chemically stable”. Further, in data set [2] (60° C./capped, 1 week, HPLC), the “Purity-1 week (Area %) 60° C./Capped, 1 week” value is recorded as 99.54 Area %. Besides, the “XRPD-12 days 60° C./Capped” value in data set [2] (60° C./capped, 12 days) is recorded as “Unchanged”. Besides, the “Initial Purity (Area %)” value in data set [2] (day 0, HPLC) was found to be 99.58 Area %. Further, the “Hygroscopicity (DVS)” value in data set [3] is on record as “Slightly”; in data set [3] (listed as crystalline Form I of Compound A free acid) it was “slightly hygroscopic”; in data set [3] (listed as free acid Form I), “slightly hygroscopic”. In addition, the “DVS weight change to 90% RH” value in data set [3] (0 to 90% RH) was determined as 0.6%. The “Crystal form after DVS test” value in data set [3] (after DVS test) is “remained unchanged”. Further, the “DVS weight change 0-80% RH” value in data set [3] (from 0 to 80% RH) is reported as ~0.3%.
